Assay results taken from patent publication US11952364B2, “TRK inhibitors useful as anticancer drugs” (TYLIGAND BIOSCIENCE (SHANGHAI) LIMITED, priority 2018, dated 2024).
Converted amounts (≈) assume the structure as drawn. Where two headings read alike, the source gives them in different places.

How the values were obtained:
[1] = Solubility in simulated fluids and PBS; assay type: physicochemical; conditions: for solubility: thermodynamic from solid, 25° C.
Excerpt: According to the well-known standard methods conventional in the art for solubility determination, for example those described in Kems, Edward H. and Di Li (2008). Drug-like Properties: Concepts, Structure Design and Methods: from ADME to Toxicity Optimization. San Diego: Academic Press), the solubility properties of the compounds of the present disclosure were investigated as follows, in testing systems of FaSSGF (pH 1.6) (Biorelevant, Fasted State Simulated gastric fluids), FeSSIF (pH 5.8) (Biorelevant, Fed State Simulated Intestinal Fluid), FaSSIF (pH 6.5) (Biorelevant, Fasted State Simulated Intestinal Fluid) and PBS buffer (Hyclone, Cat No. SH30256.01B).
Accurately weighed ˜1 mg of test compound dry powder was charged into a glass bottle, and added an appropriate volume of each of the above test system solutions, to prepare a 4 mg/mL working solution. The sample bottle was placed on a shaker at room temperature (25° C.) and shook at 1000 rpm for 1 hour, then stood overnight for equilibrium. All samples were centrifuged at 12000 rpm at 25° C. for 10 minutes. Solutions of different concentrations for each compound were prepared in DMSO as the standard solutions. 580 μL of 20% (v/v) acetonitrile aqueous solution (containing 40 ng/mL tolbutamide as internal standard) was added into each well of three microplates, and mixed uniformly. 20 μL of 4 mg/mL working solution or standard solution was added to the wells of the first microplate and mixed uniformly, from which 20 μL was taken and added to the corresponding well of the second microplate, and mixed uniformly, from which again 20 μL was taken from each well and added to the corresponding wells of the third microplate, and mixed uniformly. Mass spectrometry was adopted to analyze the samples (LC-MS/MS-014, API4000), a standard curve was developed based on the concentrations of the standard solutions, and the solubility of the test compound was calculated.

DDR1 = DDR1 (Homo sapiens (Human), UniProt Q08345); test: KINOMEscan competition binding assay
DDR1, sequence (Q08345 19-913): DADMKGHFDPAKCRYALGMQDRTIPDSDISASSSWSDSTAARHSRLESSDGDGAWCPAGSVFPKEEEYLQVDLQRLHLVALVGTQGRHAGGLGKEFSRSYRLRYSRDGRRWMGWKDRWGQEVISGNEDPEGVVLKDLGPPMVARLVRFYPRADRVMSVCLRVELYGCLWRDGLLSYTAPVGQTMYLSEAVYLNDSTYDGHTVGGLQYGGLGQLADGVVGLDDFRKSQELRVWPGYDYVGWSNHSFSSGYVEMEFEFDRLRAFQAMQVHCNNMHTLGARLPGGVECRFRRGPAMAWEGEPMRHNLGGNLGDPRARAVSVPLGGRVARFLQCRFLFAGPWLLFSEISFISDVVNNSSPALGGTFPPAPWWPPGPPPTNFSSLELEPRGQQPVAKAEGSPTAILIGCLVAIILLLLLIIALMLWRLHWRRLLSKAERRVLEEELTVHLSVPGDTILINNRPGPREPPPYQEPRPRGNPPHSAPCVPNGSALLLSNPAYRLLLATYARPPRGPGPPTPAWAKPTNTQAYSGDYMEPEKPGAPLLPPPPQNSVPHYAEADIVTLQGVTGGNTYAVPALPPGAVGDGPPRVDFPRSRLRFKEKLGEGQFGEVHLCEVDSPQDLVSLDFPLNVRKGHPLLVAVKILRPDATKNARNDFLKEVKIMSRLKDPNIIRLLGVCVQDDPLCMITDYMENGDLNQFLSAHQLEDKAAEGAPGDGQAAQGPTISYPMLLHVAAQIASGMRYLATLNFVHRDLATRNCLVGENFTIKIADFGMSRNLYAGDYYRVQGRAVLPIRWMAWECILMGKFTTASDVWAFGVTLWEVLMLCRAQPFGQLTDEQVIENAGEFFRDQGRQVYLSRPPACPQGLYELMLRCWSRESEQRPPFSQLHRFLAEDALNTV
Procedure: (§1) The experiment was performed according to the standard kinase activity determination protocol by Eurofins DiscoverX Corporation (11180 Roselle St. Suite D, San Diego, CA, USA, www.discoverX.com). Specifically, the experiment was conducted using the KINOMEscan™ screening platform, which adopts an active site-directed competition binding assay to quantitatively measure the interaction between test compounds and more than hundreds of human kinases and disease-related mutants. The working principle of the screening platform and kinase assay methods are well known in the art, for example, see www.discoverX.com.

ROS1 = ROS1 (Homo sapiens (Human), UniProt P08922); test: KINOMEscan competition binding assay
ROS1, sequence (P08922 28-2347): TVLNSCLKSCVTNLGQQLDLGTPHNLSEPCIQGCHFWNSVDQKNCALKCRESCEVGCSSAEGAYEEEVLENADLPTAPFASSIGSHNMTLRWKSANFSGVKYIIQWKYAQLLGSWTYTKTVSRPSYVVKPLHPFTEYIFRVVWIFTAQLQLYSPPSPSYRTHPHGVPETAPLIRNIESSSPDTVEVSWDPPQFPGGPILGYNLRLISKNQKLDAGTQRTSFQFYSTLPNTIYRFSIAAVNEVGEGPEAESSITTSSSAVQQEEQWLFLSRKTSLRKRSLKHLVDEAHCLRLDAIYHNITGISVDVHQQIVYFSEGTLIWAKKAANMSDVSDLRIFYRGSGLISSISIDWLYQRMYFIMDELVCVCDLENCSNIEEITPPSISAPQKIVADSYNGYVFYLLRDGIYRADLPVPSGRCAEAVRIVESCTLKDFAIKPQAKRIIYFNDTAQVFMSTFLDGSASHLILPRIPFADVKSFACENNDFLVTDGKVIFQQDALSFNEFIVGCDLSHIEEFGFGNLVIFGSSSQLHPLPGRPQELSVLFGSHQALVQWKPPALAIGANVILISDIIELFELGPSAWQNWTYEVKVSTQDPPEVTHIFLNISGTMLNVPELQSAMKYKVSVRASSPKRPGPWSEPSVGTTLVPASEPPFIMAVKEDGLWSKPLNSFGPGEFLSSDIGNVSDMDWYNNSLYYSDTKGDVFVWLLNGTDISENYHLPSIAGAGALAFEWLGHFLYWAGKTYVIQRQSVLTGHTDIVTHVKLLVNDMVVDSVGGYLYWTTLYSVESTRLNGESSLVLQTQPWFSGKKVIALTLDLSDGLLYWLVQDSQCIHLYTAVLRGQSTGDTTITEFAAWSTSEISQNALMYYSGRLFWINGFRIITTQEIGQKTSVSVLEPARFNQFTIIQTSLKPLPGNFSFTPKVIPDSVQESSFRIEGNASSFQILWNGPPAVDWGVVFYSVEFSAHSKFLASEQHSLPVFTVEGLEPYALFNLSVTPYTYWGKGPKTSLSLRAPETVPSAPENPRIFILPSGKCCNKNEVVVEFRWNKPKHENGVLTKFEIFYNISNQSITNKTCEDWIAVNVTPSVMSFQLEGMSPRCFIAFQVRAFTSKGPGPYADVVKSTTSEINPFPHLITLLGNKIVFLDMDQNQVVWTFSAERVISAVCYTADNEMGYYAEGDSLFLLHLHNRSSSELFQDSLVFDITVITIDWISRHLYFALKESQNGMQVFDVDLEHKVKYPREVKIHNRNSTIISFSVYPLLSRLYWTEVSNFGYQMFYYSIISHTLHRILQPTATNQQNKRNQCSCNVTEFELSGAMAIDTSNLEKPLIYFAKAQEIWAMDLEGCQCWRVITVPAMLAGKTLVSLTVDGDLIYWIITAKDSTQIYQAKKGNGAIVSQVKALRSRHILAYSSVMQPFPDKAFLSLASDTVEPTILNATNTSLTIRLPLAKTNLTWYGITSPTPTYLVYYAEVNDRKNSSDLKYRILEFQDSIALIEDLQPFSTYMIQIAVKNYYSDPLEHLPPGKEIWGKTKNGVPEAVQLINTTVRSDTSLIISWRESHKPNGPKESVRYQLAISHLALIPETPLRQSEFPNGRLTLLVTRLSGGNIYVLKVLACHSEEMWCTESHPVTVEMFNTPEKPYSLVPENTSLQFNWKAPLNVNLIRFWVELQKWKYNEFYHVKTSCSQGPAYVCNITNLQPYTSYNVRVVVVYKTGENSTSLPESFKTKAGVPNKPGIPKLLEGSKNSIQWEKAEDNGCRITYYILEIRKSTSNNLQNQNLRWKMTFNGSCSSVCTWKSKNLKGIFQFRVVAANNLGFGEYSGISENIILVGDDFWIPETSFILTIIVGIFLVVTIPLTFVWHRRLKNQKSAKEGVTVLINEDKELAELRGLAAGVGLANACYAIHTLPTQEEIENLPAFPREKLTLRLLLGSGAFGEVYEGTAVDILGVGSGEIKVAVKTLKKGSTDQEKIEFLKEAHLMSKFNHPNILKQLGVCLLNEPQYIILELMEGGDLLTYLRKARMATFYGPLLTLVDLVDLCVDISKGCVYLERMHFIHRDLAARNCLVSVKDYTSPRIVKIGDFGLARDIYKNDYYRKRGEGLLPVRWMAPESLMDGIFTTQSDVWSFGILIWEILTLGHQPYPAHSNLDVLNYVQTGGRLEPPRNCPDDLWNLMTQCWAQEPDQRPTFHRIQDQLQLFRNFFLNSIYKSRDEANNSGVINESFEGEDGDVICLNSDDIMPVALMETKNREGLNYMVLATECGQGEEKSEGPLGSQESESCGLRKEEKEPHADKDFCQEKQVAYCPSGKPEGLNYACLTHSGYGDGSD
Procedure: as §1

CDKL2 = CDKL2 (Homo sapiens (Human), UniProt Q92772); test: KINOMEscan competition binding assay
CDKL2, sequence (Q92772 whole entry): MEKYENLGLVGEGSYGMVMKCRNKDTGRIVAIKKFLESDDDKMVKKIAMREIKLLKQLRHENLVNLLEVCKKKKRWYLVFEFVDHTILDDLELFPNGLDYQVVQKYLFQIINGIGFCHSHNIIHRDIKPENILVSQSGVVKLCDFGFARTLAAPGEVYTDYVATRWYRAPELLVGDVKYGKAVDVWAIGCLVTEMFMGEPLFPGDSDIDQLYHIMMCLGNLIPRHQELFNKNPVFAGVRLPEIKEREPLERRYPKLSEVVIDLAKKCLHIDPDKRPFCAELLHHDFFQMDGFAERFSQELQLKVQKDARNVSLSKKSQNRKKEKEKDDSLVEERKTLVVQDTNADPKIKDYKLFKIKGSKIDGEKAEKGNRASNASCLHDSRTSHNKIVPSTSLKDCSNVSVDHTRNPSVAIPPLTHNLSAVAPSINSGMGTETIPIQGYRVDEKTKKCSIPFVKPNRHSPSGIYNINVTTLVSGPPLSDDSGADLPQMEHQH
Procedure: as §1

PLK4 = PLK4 (Homo sapiens (Human), UniProt O00444); test: KINOMEscan competition binding assay
PLK4, sequence (O00444 whole entry): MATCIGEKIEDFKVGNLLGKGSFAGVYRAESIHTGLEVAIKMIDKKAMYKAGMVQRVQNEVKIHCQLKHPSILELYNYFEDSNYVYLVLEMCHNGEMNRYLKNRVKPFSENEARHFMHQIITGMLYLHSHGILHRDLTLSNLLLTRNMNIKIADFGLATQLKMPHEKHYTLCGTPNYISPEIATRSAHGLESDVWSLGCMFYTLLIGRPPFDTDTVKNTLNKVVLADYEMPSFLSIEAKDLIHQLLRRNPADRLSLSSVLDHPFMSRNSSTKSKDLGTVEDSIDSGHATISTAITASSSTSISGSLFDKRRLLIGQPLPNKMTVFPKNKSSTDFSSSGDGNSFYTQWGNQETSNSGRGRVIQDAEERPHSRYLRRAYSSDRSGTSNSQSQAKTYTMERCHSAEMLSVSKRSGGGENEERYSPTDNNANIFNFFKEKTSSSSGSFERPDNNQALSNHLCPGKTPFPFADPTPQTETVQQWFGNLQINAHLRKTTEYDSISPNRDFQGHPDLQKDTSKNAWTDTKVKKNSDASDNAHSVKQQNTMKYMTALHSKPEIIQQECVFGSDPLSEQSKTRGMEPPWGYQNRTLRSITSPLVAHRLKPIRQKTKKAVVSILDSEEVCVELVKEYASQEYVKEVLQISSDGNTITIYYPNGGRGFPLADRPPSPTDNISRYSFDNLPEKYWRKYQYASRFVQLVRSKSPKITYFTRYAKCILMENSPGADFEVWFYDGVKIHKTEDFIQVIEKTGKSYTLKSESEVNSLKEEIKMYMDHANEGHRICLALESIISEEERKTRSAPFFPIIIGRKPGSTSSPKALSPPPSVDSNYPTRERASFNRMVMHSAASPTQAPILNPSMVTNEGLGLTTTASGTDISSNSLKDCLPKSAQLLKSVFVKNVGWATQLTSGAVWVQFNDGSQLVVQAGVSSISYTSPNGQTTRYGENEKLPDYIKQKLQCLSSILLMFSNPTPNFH
Procedure: as §1

[2] = Metabolic stability in liver microsomes (overall statement); assay type: in vitro ADME; conditions: statement in words
Excerpt: According to standard methods conventional in the art for in vitro metabolic stability studies, for example those protocols described in Kems, Edward H. and Di Li (2008). Drug-like Properties: Concepts. Structure Design and Methods: from ADME to Toxicity Optimization. San Diego: Academic Press; Di, Li et al., Optimization of a Higher Throughput Microsomal Stability Screening Assay for Profiling Drug Discovery Candidates, J. Biomol. Screen. 2003, 8(4), 453., the metabolic stability test in liver microsomes of the present compound was performed analogously as follows.
The in vitro metabolic stability of the compound in 5 species (mouse, rat, dog, monkey, and human) was evaluated by liver microsomal stability test. 0.1M potassium phosphate buffer solution (pH 7.4, containing 1.0 mM EDTA) was prepared. The test compound and the control compound were prepared into a 10 mM DMSO solution, and then 10 μL of the 10 mM DMSO compound solution was added to 190 μL of acetonitrile to prepare a 500 μM compound solution. […]
The natural logarithm of the residue percentage at each time point was subjected to linearly regression as a factor of incubation time to obtain Slope k, and then the liver microsome clearance rate (CLint^mic) and in vitro half-life (T½) were calculated according to the following formula: […]

[3] = PBS buffer, aqueous buffer, PBS pH 7.4, read-out: Solubility PBS (pH 7.4)
[4] = fassgf or other biorelevant, FaSSGF pH 1.6, read-out: Solubility FaSSGF (pH 1.6)
[5] = FaSSIF pH 6.5, read-out: Solubility FaSSIF (pH 6.5)
[6] = FeSSIF pH 5.8, read-out: Solubility FeSSEF (pH 5.8)

**Q.** Which solubility [1, 3] does the source give for `COc1ccc(C(=O)Nc2ccc(Oc3cc4cnn(C)c4cc3-c3cn[nH]c3)c(F)c2)c(=O)n1-c1ccc(F)cc1` [Example 12, N-(3-fluoro-4-(1-methyl-6-(1H-pyrazol-4-yl)-1H-indazol-5-yloxy)phenyl)-1-(4-fluorophenyl)-6-methoxy-2-oxo-1,2-dihydropyridine-3-carboxamide] here?
**A.** 0.01 µg/mL (≈ 0.0176 µM)

**Q.** What about the solubility [1, 4] of the same compound?
**A.** 27.7 µg/mL (≈ 48.7 µM)

**Q.** And the “solubility compared with Merestinib” value ([1]; statement in words)?
**A.** significantly improved solubility as compared with Merestinib

**Q.** And the solubility [1, 5]?
**A.** 5.47 µg/mL (≈ 9.62 µM)

**Q.** What about the solubility [1, 6] of the same compound?
**A.** 53.3 µg/mL (≈ 93.7 µM)

**Q.** And the inhibition at 2 µM (DDR1)?
**A.** 100%

**Q.** What about the inhibition at 2 µM (ROS1) of the same compound?
**A.** 97%

**Q.** And the inhibition at 2 µM (CDKL2)?
**A.** 100%

**Q.** And the inhibition at 2 µM (PLK4)?
**A.** 90%

**Q.** What about the “metabolic stability in liver microsomes compared with Merestinib” value [2] of the same compound?
**A.** significantly improved metabolic stability in liver microsomes

**Q.** For `Cc1ccc(C(=O)Nc2ccc(Oc3cc4cnn(C)c4cc3-c3cn[nH]c3)c(F)c2)c(=O)n1-c1ccc(F)cc1` [Merestinib, reference compound], which solubility [1, 3] is on record?
**A.** 0.02 µg/mL (≈ 0.0362 µM)

**Q.** And the solubility [1, 4]?
**A.** 19.3 µg/mL (≈ 34.9 µM)

**Q.** And the solubility [1, 5]?
**A.** 3.07 µg/mL (≈ 5.56 µM)

**Q.** And the solubility [1, 6]?
**A.** 33.7 µg/mL (≈ 61 µM)
